# Measured values published in ChEMBL document CHEMBL1201862, “PubChem BioAssay data set” (2004).
#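 These data come from cells grown in 96-well plates and exposed to compound for 48 hours at five concentrations. The concentration for 50% growth inhibition is given as GI50.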 Activity calls are given as the source filed them. Cut-off read from the data, not from the text of the source: active = GI50 up to about 1.1 µM and inactive = higher.
# Experiments:
# Assay in all cases: NCI anticancer screen, dose series, 48 h
# SK-MEL-2 = test system: SK-MEL-2
# SNB-75 = test system: SNB-75
# RXF 393 = test system: RXF 393
# HOP-92 = test system: HOP-92
# NCI-H522 = test system: NCI-H522
# NCI-H460 = test system: NCI-H460
# UACC-257 = test system: UACC-257
# CAKI-1 = test system: CAKI-1
# EKVX = test system: EKVX
# NCI-H226 = test system: NCI-H226
# 786-0 = test system: 786-0
# K562 = test system: K562
# COLO 205 = test system: COLO 205
# A498 = test system: A498
# XF498 = test system: XF498
# M19-MEL = test system: M19-MEL
# UACC-62 = test system: UACC-62
# SNB-19 = test system: SNB-19
# TK-10 = test system: TK-10
# SK-MEL-28 = test system: SK-MEL-28
# UO-31 = test system: UO-31
# SF-268 = test system: SF-268
# LXFL 529 = test system: LXFL 529
# HOP-62 = test system: HOP-62
# RPMI-8226 = test system: RPMI-8226
# KM12 = test system: KM12
# HCT-15 = test system: HCT-15
# LOX IMVI = test system: LOX IMVI
# NCI-H23 = test system: NCI-H23
# SF-539 = test system: SF-539
# U-251 = test system: U-251
# OVCAR-3 = test system: OVCAR-3
# SNB-78 = test system: SNB-78
# DMS-273 = test system: DMS-273
# MOLT-4 = test system: MOLT-4
# HCC 2998 = test system: HCC 2998
# RXF 631 = test system: RXF 631
# CCRF-CEM = test system: CCRF-CEM
# DLD-1 = test system: DLD-1
# OVCAR-4 = test system: OVCAR-4
# Malme-3M = test system: Malme-3M
# OVCAR-8 = test system: OVCAR-8
# HL-60 = test system: HL-60
# SK-OV-3 = test system: SK-OV-3
# SR = test system: SR
# OVCAR-5 = test system: OVCAR-5
# SW-620 = test system: SW-620
# HT-29 = test system: HT-29
# ACHN = test system: ACHN
# SK-MEL-5 = test system: SK-MEL-5
# A549 = test system: A549
# IGROV-1 = test system: IGROV-1
# M14 = test system: M14
# SF-295 = test system: SF-295
structure (smiles),measurement,setting,value
COC1=CC(=O)[C@]2(C)[C@H](C1=O)C(C)[C@H]2c1ccccc1 (some centres undefined),GI50,SK-MEL-2,> 100 µM (inactive)
same,GI50,SNB-75,> 100 µM (inactive)
same,GI50,RXF 393,> 100 µM (inactive)
same,GI50,HOP-92,> 100 µM (inactive)
same,GI50,NCI-H522,> 100 µM (inactive)
same,GI50,NCI-H460,> 100 µM (inactive)
same,GI50,UACC-257,> 100 µM (inactive)
same,GI50,CAKI-1,> 100 µM (inactive)
same,GI50,EKVX,> 100 µM (inactive)
same,GI50,NCI-H226,> 100 µM (inactive)
same,GI50,786-0,> 100 µM (inactive)
same,GI50,K562,> 100 µM (inactive)
same,GI50,COLO 205,> 100 µM (inactive)
same,GI50,A498,> 100 µM (inactive)
same,GI50,XF498,> 100 µM (inactive)
same,GI50,M19-MEL,> 100 µM (inactive)
same,GI50,UACC-62,> 100 µM (inactive)
same,GI50,SNB-19,> 100 µM (inactive)
same,GI50,TK-10,> 100 µM (inactive)
same,GI50,SK-MEL-28,> 100 µM (inactive)
same,GI50,UO-31,> 100 µM (inactive)
same,GI50,SF-268,> 100 µM (inactive)
same,GI50,LXFL 529,> 100 µM (inactive)
same,GI50,HOP-62,> 100 µM (inactive)
same,GI50,RPMI-8226,> 100 µM (inactive)
same,GI50,KM12,> 100 µM (inactive)
same,GI50,HCT-15,> 100 µM
same,GI50,LOX IMVI,> 100 µM (inactive)
same,GI50,NCI-H23,> 100 µM (inactive)
same,GI50,SF-539,> 100 µM (inactive)
same,GI50,U-251,> 100 µM (inactive)
same,GI50,OVCAR-3,> 100 µM (inactive)
same,GI50,SNB-78,> 100 µM (inactive)
same,GI50,DMS-273,> 100 µM (inactive)
same,GI50,MOLT-4,> 100 µM (inactive)
same,GI50,HCC 2998,> 100 µM (inactive)
same,GI50,RXF 631,> 100 µM (inactive)
same,GI50,CCRF-CEM,> 100 µM (inactive)
same,GI50,DLD-1,> 100 µM (inactive)
same,GI50,OVCAR-4,> 100 µM (inactive)
same,GI50,Malme-3M,> 100 µM (inactive)
same,GI50,OVCAR-8,> 100 µM (inactive)
same,GI50,HL-60,> 100 µM (inactive)
same,GI50,SK-OV-3,> 100 µM (inactive)
same,GI50,SR,> 100 µM (inactive)
same,GI50,OVCAR-5,> 100 µM (inactive)
same,GI50,SW-620,> 100 µM (inactive)
same,GI50,HT-29,> 100 µM (inactive)
same,GI50,ACHN,> 100 µM (inactive)
same,GI50,SK-MEL-5,> 100 µM (inactive)
same,GI50,A549,> 100 µM (inactive)
same,GI50,IGROV-1,> 100 µM (inactive)
same,GI50,M14,> 100 µM (inactive)
same,GI50,SF-295,> 100 µM (inactive)
